Results as given in article PMC7756341, “Liposomal FRET Assay Identifies Potent Drug‐Like Inhibitors of the Ceramide Transport Protein (CERT)” (Chemistry (Weinheim an Der Bergstrasse, Germany), 2020).
Several values for one entry are separate records, joined by “and”; a condition that tells them apart may be missing. Equal entries are not always repeated.

Tested on: HeLa cells
Test: Sphingolipid content of treated HeLa cells by quantitative mass spectrometry
Format: cell-based
Details: for effect on total sphingomyelin: 48 hours, serum-reduced medium; for Cer16 / Cer18 / Cer20 / Cer22 / Cer24 / Cer24:1 / Cer total / S1P / SM16 / SM18 / SM20 / SM22 / SM24 / SM24:1 / SM total / Sph / ratio total SM/Cer: HeLa, 42h, single replicates; for Cer16 / Cer18 / Cer20 / Cer22 / Cer24 / Cer24:1 / Cer total / S1P / SM16 / SM18 / SM20 / SM22 / SM24 / SM24:1 / SM total / Sph: 500.000 cells per sample
Protocol: 5.2 Cellular experiment for lipidomic analysis
Hela cells were cultured in six well plates (177000 cells per well) under standard growth conditions (DMEM with 4mM L-glutamine, 10% FBS, 1% Penicillin-Streptomycin; CO2 incubator with […]
37°C, 5% CO2). […]
After incubation, […]
the adherent cells were washed twice with ice-cold PBS and harvested by treatment with trypsin.
Cells were counted using a Countess II cell counter ( Invitrogen) and adjusted to 500.000 cells per sample. Each sample was then treated as described below.
6. Details for experimental lipidomics
Cells were subjected to lipid extraction using 1.5 mL methanol/chloroform (2:1, v:v) as described. The extraction solvent contained C17-ceramide (Cer17) and C16 -d31-sphingomyelin (d31-SM16) (both Avanti Polar Lipids, Alabaster, USA) as internal standards. Chromatographic separations were achieved on a 1260 Infinity HPLC (Agilent Technologies, Waldbronn, Germany) equipped with a Poroshell 120 EC-C8 column (3.0 × 150 mm, 2.7 µm; Agilent Technologies). A mobile phase system consisting of water (solvent A) and acetonitrile/methanol (1:1, v:v; solvent B), both acidified with 0.1% formic acid, was used for gradient elution at an initial composition of 40:60 (A:B, v:v) and a flow rate of 0.5 mL/min. MS/MS analyses were carried out using a 6490 triple-quadrupole mass spectrometer (Agilent Technologies) operating in the positive electrospray ionization mode (ESI+). The following ion source parameters were set: sheath gas temperature, 375 °C; sheath gas flow, 12 L/min of nitrogen; nebulizer pressure, 30 psi; drying gas temperature, 200 °C; drying gas flow, 15 L/min of nitrogen; capillary voltage, 4000 V; nozzle voltage, 1500 V; iFunnel high pressure RF voltage, 150 V and iFunnel low pressure RF voltage, 60 V. The following mass transitions were recorded (collision energies of 25 eV for all transitions): ceramides: m/z […]
with MassHunter Software (Agilent Technologies). Significance of differences between two samples was calculated by student’s t -test. Asterisks indicate significant differences between treated and untreated samples: * p<0.05; ** p<0.01; *** p<0.005.
Table S1. Sphingolipid content of treated cells.
(1 picture or pasted object on this page, not shown here)

CC1=NN(c2ccc(C)c(C)c2)C(=O)/C1=N\Nc1cccc(-c2cccc(C(=O)O)c2)c1O [17C9, Eltrombopag]
effect on SM/Cer rate (HeLa cells): dramatically increased | effect on total sphingomyelin (HeLa cells): no significant changes | Cer16 (1 µM): 34,40 pmol/sample and 29,98 pmol/sample and 31,42 pmol/sample | Cer18 (1 µM): 3,09 pmol/sample and 3,68 pmol/sample and 2,62 pmol/sample | Cer20 (1 µM): 0,85 pmol/sample and 3,45 pmol/sample and 0,80 pmol/sample | Cer22 (1 µM): 6,25 pmol/sample and 5,55 pmol/sample and 6,14 pmol/sample | Cer24 (1 µM): 18,45 pmol/sample and 16,72 pmol/sample and 19,49 pmol/sample | Cer24:1 (1 µM): 39,87 pmol/sample and 35,52 pmol/sample and 38,79 pmol/sample | Cer total (1 µM): 102,91 pmol/sample and 96,34 pmol/sample and 97,82 pmol/sample | S1P (1 µM): 1,15 pmol/sample and 1,32 pmol/sample and 1,00 pmol/sample | SM16 (1 µM): 1737,34 pmol/sample and 1866,45 pmol/sample and 1725,36 pmol/sample | SM18 (1 µM): 50,83 pmol/sample and 50,55 pmol/sample and 45,45 pmol/sample | SM20 (1 µM): 17,12 pmol/sample and 16,70 pmol/sample and 15,18 pmol/sample | SM22 (1 µM): 108,33 pmol/sample and 106,97 pmol/sample and 93,72 pmol/sample | SM24 (1 µM): 172,22 pmol/sample and 163,43 pmol/sample and 147,49 pmol/sample | SM24:1 (1 µM): 788,48 pmol/sample and 772,38 pmol/sample and 712,32 pmol/sample | SM total (1 µM): 2874,32 pmol/sample and 2976,47 pmol/sample and 2739,52 pmol/sample | Sph (1 µM): 3,11 pmol/sample and 2,70 pmol/sample and 4,01 pmol/sample | ratio total SM/Cer (1 µM): 29,4 and 28,9 and 28,4 | Cer16 (2.5 µM): 32,36 pmol/sample and 33,19 pmol/sample and 28,45 pmol/sample | Cer18 (2.5 µM): 3,43 pmol/sample and 3,27 pmol/sample and 2,51 pmol/sample | Cer20 (2.5 µM): 2,29 pmol/sample and 1,23 pmol/sample and 0,90 pmol/sample | Cer22 (2.5 µM): 6,89 pmol/sample and 6,59 pmol/sample and 5,14 pmol/sample | Cer24 (2.5 µM): 19,23 pmol/sample and 20,44 pmol/sample and 16,88 pmol/sample | Cer24:1 (2.5 µM): 39,53 pmol/sample and 38,37 pmol/sample and 33,82 pmol/sample | Cer total (2.5 µM): 103,73 pmol/sample and 103,08 pmol/sample and 87,70 pmol/sample | S1P (2.5 µM): 1,23 pmol/sample and 1,05 pmol/sample and 1,02 pmol/sample | SM16 (2.5 µM): 1702,42 pmol/sample and 1763,99 pmol/sample and 1597,48 pmol/sample | SM18 (2.5 µM): 47,65 pmol/sample and 51,14 pmol/sample and 44,81 pmol/sample | SM20 (2.5 µM): 15,77 pmol/sample and 16,69 pmol/sample and 14,30 pmol/sample | SM22 (2.5 µM): 97,64 pmol/sample and 104,36 pmol/sample and 90,89 pmol/sample | SM24 (2.5 µM): 148,54 pmol/sample and 158,37 pmol/sample and 140,98 pmol/sample | SM24:1 (2.5 µM): 659,70 pmol/sample and 706,74 pmol/sample and 726,62 pmol/sample | SM total (2.5 µM): 2548,15 pmol/sample and 2718,76 pmol/sample and 2821,17 pmol/sample | Sph (2.5 µM): 4,57 pmol/sample and 3,32 pmol/sample and 3,82 pmol/sample | ratio total SM/Cer (2.5 µM): 29,1 and 26,2 and 27,4 | Cer16 (5 µM): 29,49 pmol/sample and 35,89 pmol/sample and 33,40 pmol/sample | Cer18 (5 µM): 2,38 pmol/sample and 3,05 pmol/sample and 2,58 pmol/sample | Cer20 (5 µM): 0,79 pmol/sample and 0,94 pmol/sample and 0,73 pmol/sample | Cer22 (5 µM): 4,97 pmol/sample and 6,52 pmol/sample and 6,08 pmol/sample | Cer24 (5 µM): 18,36 pmol/sample and 21,85 pmol/sample and 21,93 pmol/sample | Cer24:1 (5 µM): 34,90 pmol/sample and 40,79 pmol/sample and 38,77 pmol/sample | Cer total (5 µM): 90,90 pmol/sample and 109,04 pmol/sample and 103,49 pmol/sample | S1P (5 µM): 0,97 pmol/sample and 0,93 pmol/sample and 0,94 pmol/sample | SM16 (5 µM): 1510,97 pmol/sample and 1730,88 pmol/sample and 1785,73 pmol/sample | SM18 (5 µM): 45,08 pmol/sample and 52,99 pmol/sample and 49,27 pmol/sample | SM20 (5 µM): 14,34 pmol/sample and 17,35 pmol/sample and 16,52 pmol/sample | SM22 (5 µM): 86,79 pmol/sample and 107,23 pmol/sample and 102,55 pmol/sample | SM24 (5 µM): 143,47 pmol/sample and 171,51 pmol/sample and 164,74 pmol/sample | SM24:1 (5 µM): 606,54 pmol/sample and 703,57 pmol/sample and 702,64 pmol/sample | SM total (5 µM): 2407,20 pmol/sample and 2783,54 pmol/sample and 2821,45 pmol/sample | Sph (5 µM): 3,92 pmol/sample and 3,79 pmol/sample and 3,72 pmol/sample | ratio total SM/Cer (5 µM): 26,5 and 25,5 and 27,3

Cc1cc(C2=NOC(c3cc(Cl)cc(Cl)c3)(C(F)(F)F)C2)ccc1C(=O)NCC(=O)NCC(F)(F)F (stereo not drawn) [20D5, Fluralaner]
effect on total sphingomyelin (HeLa cells): dose‐dependent reduction | Cer16 (1 µM): 45,48 pmol/sample and 40,19 pmol/sample and 39,73 pmol/sample | Cer18 (1 µM): 6,03 pmol/sample and 4,12 pmol/sample and 3,84 pmol/sample | Cer20 (1 µM): 2,67 pmol/sample and 1,37 pmol/sample and 1,12 pmol/sample | Cer22 (1 µM): 11,46 pmol/sample and 9,24 pmol/sample and 9,12 pmol/sample | Cer24 (1 µM): 40,67 pmol/sample and 36,50 pmol/sample and 37,27 pmol/sample | Cer24:1 (1 µM): 46,05 pmol/sample and 40,74 pmol/sample and 40,44 pmol/sample | Cer total (1 µM): 152,37 pmol/sample and 131,71 pmol/sample and 131,97 pmol/sample | S1P (1 µM): 1,21 pmol/sample and 1,34 pmol/sample and 1,10 pmol/sample | SM16 (1 µM): 1625,68 pmol/sample and 1717,57 pmol/sample and 1686,01 pmol/sample | SM18 (1 µM): 54,98 pmol/sample and 59,04 pmol/sample and 56,68 pmol/sample | SM20 (1 µM): 18,10 pmol/sample and 18,45 pmol/sample and 17,14 pmol/sample | SM22 (1 µM): 110,98 pmol/sample and 111,56 pmol/sample and 111,04 pmol/sample | SM24 (1 µM): 197,09 pmol/sample and 206,21 pmol/sample and 199,98 pmol/sample | SM24:1 (1 µM): 621,75 pmol/sample and 662,66 pmol/sample and 645,68 pmol/sample | SM total (1 µM): 2628,58 pmol/sample and 2775,49 pmol/sample and 2716,53 pmol/sample | Sph (1 µM): 3,74 pmol/sample and 3,07 pmol/sample and 3,46 pmol/sample | ratio total SM/Cer (1 µM): 19,9 and 18,2 and 20,6 | Cer16 (2.5 µM): 40,44 pmol/sample and 43,49 pmol/sample and 36,97 pmol/sample | Cer18 (2.5 µM): 4,61 pmol/sample and 4,98 pmol/sample and 3,95 pmol/sample | Cer20 (2.5 µM): 1,33 pmol/sample and 1,40 pmol/sample and 1,09 pmol/sample | Cer22 (2.5 µM): 9,74 pmol/sample and 10,99 pmol/sample and 8,69 pmol/sample | Cer24 (2.5 µM): 35,83 pmol/sample and 40,22 pmol/sample and 34,92 pmol/sample | Cer24:1 (2.5 µM): 37,47 pmol/sample and 43,87 pmol/sample and 37,54 pmol/sample | Cer total (2.5 µM): 129,42 pmol/sample and 144,94 pmol/sample and 123,16 pmol/sample | S1P (2.5 µM): 1,21 pmol/sample and 1,29 pmol/sample (2×) | SM16 (2.5 µM): 1311,55 pmol/sample and 1447,18 pmol/sample and 1450,27 pmol/sample | SM18 (2.5 µM): 48,19 pmol/sample and 50,02 pmol/sample and 51,79 pmol/sample | SM20 (2.5 µM): 16,11 pmol/sample and 17,46 pmol/sample and 16,39 pmol/sample | SM22 (2.5 µM): 98,76 pmol/sample and 109,23 pmol/sample and 102,97 pmol/sample | SM24 (2.5 µM): 179,29 pmol/sample and 202,61 pmol/sample and 193,22 pmol/sample | SM24:1 (2.5 µM): 587,13 pmol/sample and 553,18 pmol/sample and 603,33 pmol/sample | SM total (2.5 µM): 2401,78 pmol/sample and 2207,08 pmol/sample and 2429,82 pmol/sample | Sph (2.5 µM): 3,04 pmol/sample and 3,17 pmol/sample and 2,91 pmol/sample | ratio total SM/Cer (2.5 µM): 19,5 and 17,1 and 16,8 | Cer16 (5 µM): 48,26 pmol/sample and 50,29 pmol/sample and 47,46 pmol/sample | Cer18 (5 µM): 5,41 pmol/sample and 5,92 pmol/sample and 5,34 pmol/sample | Cer20 (5 µM): 1,35 pmol/sample and 1,41 pmol/sample and 1,29 pmol/sample | Cer22 (5 µM): 9,51 pmol/sample and 10,83 pmol/sample and 9,59 pmol/sample | Cer24 (5 µM): 33,23 pmol/sample and 39,15 pmol/sample and 38,78 pmol/sample | Cer24:1 (5 µM): 35,26 pmol/sample and 38,24 pmol/sample and 35,25 pmol/sample | Cer total (5 µM): 133,01 pmol/sample and 145,85 pmol/sample and 137,71 pmol/sample | S1P (5 µM): 1,32 pmol/sample and 1,22 pmol/sample and 1,19 pmol/sample | SM16 (5 µM): 1128,33 pmol/sample and 1262,96 pmol/sample and 1233,63 pmol/sample | SM18 (5 µM): 43,19 pmol/sample and 47,39 pmol/sample and 44,90 pmol/sample | SM20 (5 µM): 13,45 pmol/sample and 15,19 pmol/sample and 13,75 pmol/sample | SM22 (5 µM): 74,74 pmol/sample and 85,38 pmol/sample and 82,05 pmol/sample | SM24 (5 µM): 132,70 pmol/sample and 158,23 pmol/sample and 155,99 pmol/sample | SM24:1 (5 µM): 419,73 pmol/sample and 481,61 pmol/sample and 461,72 pmol/sample | SM total (5 µM): 1812,15 pmol/sample and 2050,77 pmol/sample and 1992,04 pmol/sample | Sph (5 µM): 3,25 pmol/sample and 3,29 pmol/sample and 4,27 pmol/sample | ratio total SM/Cer (5 µM): 13,6 and 14,1 and 14,5
